Columns and labels:
Assay in all cases: HIV-1 protease inhibition assay
Conditions in all cases: pH 4.7; 25 °C
[1] = target: T1, Gag-Pol polyprotein [484-582,Q491K,I494L,I497V,V499I,E519D,I534V,R541K,D544E,Q553K,A555V,L573M] (Human immunodeficiency virus, UniProt Q9QBY3, A555V/D544E/E519D/I494L/I497V/I534V/L573M/Q491K/Q553K/R541K/V499I)
T1 construct: 484-582
Experimental: (§1) The reaction mixture contained 2 µL of protease and 2 µL of inhibitor (or DMSO as a control) and was incubated for 20-30 min at room temperature prior to the substrate cleavage reaction. 150 µL of a 1 µM substrate were used in substrate buffer (0.1 M sodium acetate, 1 M sodium chloride, 1 mM EDTA, 1 MM DTT, 2% DMSO, and 1 mg/mL BSA with an adjusted pH of 4.7).

[2] = target: T2, Gag-Pol polyprotein [484-582,Q491K,I497V,V499I,E519D,R541K,D544E,L547P,Q553K,A555V,G557S,I568V,L573M,L574M] (Human immunodeficiency virus, UniProt Q9QBY3, A555V/D544E/E519D/G557S/I497V/I568V/L547P/L573M/L574M/Q491K/Q553K/R541K/V499I)
T2 construct: 484-582
Experimental: as §1

[3] = target: T3, Gag-Pol polyprotein [484-582,Q491K,I497V,V499I,E519D,G532V,I538V,R541K,D544E,L547P,Q553K,V566A,L573M] (Human immunodeficiency virus, UniProt Q9QBY3, D544E/E519D/G532V/I497V/I538V/L547P/L573M/Q491K/Q553K/R541K/V499I/V566A)
T3 construct: 484-582
Experimental: as §1

## CC[C@H](C)CN(C[C@@H](O)[C@H](Cc1ccccc1)NC(=O)O[C@H]1CO[C@H]2OCC[C@H]21)S(=O)(=O)c1ccc(CO)cc1 [(3R,3aS,6aR)-Hexahydrofuro[2,3-b]furan-3-yl ((2S,3R)-3-hydroxy-4-(4-(hydroxymethyl)-N-((S)-2-methylbutyl)phenylsulfonamido)-1-phenylbutan-2-yl)carbamate (10c)]
[1]
  Ki: 0.013 nM
[2]
  Ki: 0.004 nM
[3]
  Ki: 0.022 nM

## CC[C@H](C)CN(C[C@@H](O)[C@H](Cc1ccccc1)NC(=O)O[C@H]1CO[C@H]2OCC[C@H]21)S(=O)(=O)c1ccc(OC)cc1 [(3R,3aS,6aR)-Hexahydrofuro[2,3-b]furan-3-yl ((2S,3R)-3-hydroxy-4-(4-methoxy-N-((S)-2-methylbutyl)phenylsulfonamido)-1-phenylbutan-2-yl)carbamate (10b)]
[1]
  Ki: 0.103 nM
[2]
  Ki: 0.021 nM
[3]
  Ki: 0.005 nM

## CC[C@H](C)CN(C[C@@H](O)[C@H](Cc1ccccc1)NC(=O)O[C@H]1CO[C@H]2OCC[C@H]21)S(=O)(=O)c1ccc2c(c1)OCO2 [(3R,3aS,6aR)-Hexahydrofuro[2,3-b]furan-3-yl ((2S,3R)-3-hydroxy-4-(N-((S)-2-methylbutyl)benzo[d][1,3]dioxole-5-sulfonamido)-1-phenylbutan-2-yl)carbamate (10d)]
[1]
  Ki: 0.035 nM
[2]
  Ki: 0.099 nM
[3]
  Ki: 0.029 nM

## CC[C@H](C)CN(C[C@@H](O)[C@H](Cc1ccccc1)NC(=O)O[C@H]1CO[C@H]2OCC[C@H]21)S(=O)(=O)c1ccc2ncsc2c1 [(3R,3aS,6aR)-Hexahydrofuro[2,3-b]furan-3-yl ((2S,3R)-3-hydroxy-4-(N-((S)-2-methylbutyl)benzo[d]thiazole-6-sulfonamido)-1-phenylbutan-2-yl)carbamate (10e)]
[1]
  Ki: 0.025 nM
[2]
  Ki: 0.041 nM
[3]
  Ki: 0.012 nM

## CCC(CC)CN(C[C@@H](O)[C@H](Cc1ccccc1)NC(=O)O[C@H]1CO[C@H]2OCC[C@H]21)S(=O)(=O)c1ccc(N)cc1 [(3R,3aS,6aR)-Hexahydrofuro[2,3-b]furan-3-yl ((2S,3R)-4-(4-amino-N-(2-ethylbutyl)phenylsulfonamido)-3-hydroxy-1-phenylbutan-2-yl)carbamate (11a)]
[1]
  Ki: 0.062 nM
[2]
  Ki: 0.022 nM
[3]
  Ki: 0.034 nM

## CC[C@H](C)CN(C[C@@H](O)[C@H](Cc1ccccc1)NC(=O)O[C@H]1CO[C@H]2OCC[C@H]21)S(=O)(=O)c1ccc(N)cc1 [(3R,3aS,6aR)-Hexahydrofuro[2,3-b]furan-3-yl ((2S,3R)-4-(4-amino-N-((S)-2-methylbutyl)phenylsulfonamido)-3-hydroxy-1-phenylbutan-2-yl)carbamate (10a)]
[1]
  Ki: 0.006 nM
[2]
  Ki: 0.013 nM
[3]
  Ki: 0.016 nM

## CCC(CC)CN(C[C@@H](O)[C@H](Cc1ccccc1)NC(=O)O[C@H]1CO[C@H]2OCC[C@H]21)S(=O)(=O)c1ccc(CO)cc1 [(3R,3aS,6aR)-Hexahydrofuro[2,3-b]furan-3-yl ((2S,3R)-4-(N-(2-ethylbutyl)-4-(hydroxymethyl)phenylsulfonamido)-3-hydroxy-1-phenylbutan-2-yl)carbamate (11c)]
[1]
  Ki: 0.026 nM
[2]
  Ki: 0.07 nM
[3]
  Ki: 0.005 nM

## CCC(CC)CN(C[C@@H](O)[C@H](Cc1ccccc1)NC(=O)O[C@H]1CO[C@H]2OCC[C@H]21)S(=O)(=O)c1ccc(OC)cc1 [(3R,3aS,6aR)-Hexahydrofuro[2,3-b]furan-3-yl ((2S,3R)-4-(N-(2-ethylbutyl)-4-methoxyphenylsulfonamido)-3-hydroxy-1-phenylbutan-2-yl)carbamate (11b)]
[1]
  Ki: 0.01 nM
[2]
  Ki: 0.134 nM
[3]
  Ki: 0.001 nM

## CCC(CC)CN(C[C@@H](O)[C@H](Cc1ccccc1)NC(=O)O[C@H]1CO[C@H]2OCC[C@H]21)S(=O)(=O)c1ccc2c(c1)OCO2 [(3R,3aS,6aR)-Hexahydrofuro[2,3-b]furan-3-yl ((2S,3R)-4-(N-(2-ethylbutyl)benzo[d][1,3]dioxole-5-sulfonamido)-3-hydroxy-1-phenylbutan-2-yl)carbamate (11d)]
[1]
  Ki: 0.006 nM
[2]
  Ki: 0.104 nM
[3]
  Ki: 0.034 nM

## CCC(CC)CN(C[C@@H](O)[C@H](Cc1ccccc1)NC(=O)O[C@H]1CO[C@H]2OCC[C@H]21)S(=O)(=O)c1ccc2ncsc2c1 [(3R,3aS,6aR)-Hexahydrofuro[2,3-b]furan-3-yl ((2S,3R)-4-(N-(2-ethylbutyl)benzo[d]thiazole-6-sulfonamido)-3-hydroxy-1-phenylbutan-2-yl)carbamate (11e)]
[1]
  Ki: 0.108 nM
[2]
  Ki: 0.052 nM
[3]
  Ki: 0.126 nM

Reference: BindingDB's records for doi:10.1016/j.chembiol.2013.07.014 (University of Massachusetts, 2013)
